Columns and labels:
Assay type in all cases: cell-based, human
fibrocytes [1] = test: IL-10, icIL-1RA, sIL-1RA expression (PCR, ELISA)
Experimental: FIGS. 11A-11F are graphs showing teprotumumab attenuates bTSH induced IL-10 while enhancing icIL-1RA and sIL-1RA expression in fibrocytes and GD-OF. Fibrocyte cultures were treated with teprotumumab (50 μg/ml), rhSlit2 (50 ng/ml) or human Isotype IgG for 7-9 d, with bTSH (5 mIU/mL) for final 6 h. RNA was extracted and reverse transcribed. Isolated cDNA was subjected to quantitative real-time PCR for IL-10 (FIGS. 11A and 11B), icIL-1RA (FIGS. 11C and 11D). Media and cellular proteins were collected and subjected to specific ELISAs for icIL-1RA and sIL-1RA (FIGS. 11E, 11F, 11G, and 11H). PCR values were normalized to their respective GAPDH levels. icIL-1RA and sIL-1RA protein levels were normalized to cellular protein levels. Data are expressed as the mean±SD of three independent determinations. Experiments were repeated three times. **, p<0.01; ***. P<0.001.
IL-12, IL-23, IL-10, HA and BAFF ELISAs. Confluent cultures were treated with nothing or teprotumumab (50 μg/mL) for 5 d, without or with bTSH (5 mU/mL) for the intervals indicated or 72 h. Media and rinsed cell layers were homogenized in 0.1M NaCl and assayed for HA content using an ELISA kit (K-1200) from Echelon Biosciences Inc. (Salt Lake City, UT) according to manufacturer's instructions. A BAFF specific ELISA, purchased from R & D systems, was used in accordance with the manufacturer's instructions.
(§1) Real-time PCR Confluent fibrocyte and GD-OF cultures were incubated with bTSH (5 mIU/mL), teprotumumab (50 μg/mL) or linsitinib (1 μM) for the time intervals indicated, washed with PBS and RNA was extracted with the Aurum Total RNA Mini Kit (cat. #732-6820, Bio-Rad, Hercules, CA). Cellular RNA (2 μg) was reverse transcribed using QuantiTect Reverse Transcription kit (cat. #205314, Qiagen (Germantown, MD) and real-time PCR was performed using an Applied Biosystems instrument with QuantiTect SYBR Green PCR kit (cat. no. 204143; Qiagen, Frederick, MD). Primer sequences were as follows.

[2] = test system: fibrocyte/adherent T cell co-cultures; test: IL-17A and INFγ released into culture medium (ELISA); settings: 50 μg/mL, day 9
Text: ELISAs Media were collected from cultures treated as indicated and analyzed for concentrations of […] and IL-17A using specific ELISA kits (R&D systems) according to the manufacture's protocol.

GD-OF = test: HAS1 and HAS2 mRNA, real-time PCR; settings: teprotumumab 50 μg/ml or linsitinib 1 μM, 7-9 d
Experimental: (§2) FIGS. 13A-13B are graphs showing the effect of teprotumumab on bTSH induced hyaluronan (HA) production in GD-OF (FIG. 13A) and fibrocytes (FIG. 13B). GD-OF were treated with or without teprotumumab (50 μg/ml) or human Isotype IgG (5 μg/ml) for 7-9 d and stimulated with bTSH (5 mIU/mL) for graded intervals indicated along the abscissa for 0 to 96h. Media were collected and subjected to HA ELISA. Values were normalized to respective cell layer protein levels and expressed as the mean±SD of three independent determinations. Experiments were repeated three times. FIGS. 13C-13F are graphs showing the divergent pattern of hyaluronan synthase (HAS) isoenzyme induction by bTSH in fibrocytes versus GD-OF and effects of teprotumumab (FIGS. 13C and 13D) and linsitinib (FIGS. 13E and 13F). Confluent monolayers of GD-OF and fibrocytes remained untreated or received teprotumumab (50 μg/ml) or linsitinib (1 μM) and human Isotype IgG for 7-9 d. Some cultures were treated with bTSH (5 mIU/mL) for 6h. Cellular RNA was harvested mRNA was reverse transcribed, and cDNA subjected to quantitative real-time PCR for HAS1 and HAS2. Values were normalized to their respective GAPDH levels and are expressed as the mean±SD of three independent determinations. Experiments were repeated three times. *, P<0.05; **, p<0.01; ***. P<0.001.
as §1

fibrocytes [3] = test: HAS1 and HAS2 mRNA, real-time PCR; settings: teprotumumab 50 μg/ml or linsitinib 1 μM, 7-9 d
Experimental: as §2, §1

fibrocytes [4] = test: IL-23p19 and IL-12p35 mRNA expression, real-time PCR; settings: teprotumumab 50 μg/ml or linsitinib 1 μM, 7-9 d
Experimental: FIGS. 10A-10F are graphs showing the divergent effect of teprotumumab on bTSH induced IL-23p19 and IL-12p35 expression on fibrocytes and GD-OF. Rinsed fibrocyte and GD-OF monolayers were incubated with or without 50 μg/ml teprotumumab (FIGS. 10A and 10B) or 1 μM linsitinib (FIGS. 10C and 10D) and human Isotype IgG for 7-9 d, and bTSH (5 mIU/mL) was added for 6 h. Harvested RNA was reverse transcribed and isolated cDNA was subjected to quantitative real-time PCR for IL-23p19 and IL-12p35 mRNA levels. Values were normalized to their respective GAPDH levels and are expressed as the mean±SD of three independent determinations. Experiments were repeated three times. FIGS. 10E and 10F are graphs showing the levels of IL-23 protein when rinsed fibrocyte and GD-OF monolayers were incubated with or without 50 μg/ml teprotumumab. **, p<0.01; ***. P<0.001.
as §1

[5] = teprotumumab 50 μg/ml or rhSlit2 50 ng/ml, 7-9 d

## teprotumumab
Fibrocytes [1]; ELISA, fibrocytes
  effects on icIL-1RA protein levels: minimal
Fibrocytes [1]; [5]
  IL-10 mRNA, basal and bTSH-provoked expression: downregulated
  basal and bTSH-dependent icIL-1RA and sIL-1RA mRNA levels: upregulated
[2]
  reduction of IL-17A released into the culture media: 52%
  reduction of INFγ released into the culture media: 54%
GD-OF
  HAS2 expression, single agent or in combination with bTSH: induced
  basal and bTSH-provoked expression of HAS1: inhibited
Fibrocytes [3]
  HAS2 expression, single agent or in combination with bTSH: induced
  basal and bTSH-provoked expression of HAS1: inhibited
Fibrocytes [4]
  IL-12p35 expression, basal and induction by bTSH: enhances
  IL-23p19 expression, basal and induction by bTSH: inhibited

Reference: US20250034264A1, “REGULATING T CELL IMMUNE RESPONSE THROUGH IGF-I RECEPTOR (IGF-1R)” (The Regents of the University of Michigan, priority 2021, published 2025)
